As usually defined, the pEC50 is the EC50 on a negative log10 scale, so that one unit is a factor of ten.

Assay [1] concerns HCV genotype 1a (H77 strain) replicon in HUH-7 cells. Kind of assay: HCV replicon luciferase reporter assay, genotype 1a. It is filed as cell-based. As to conditions: Hepatitis C virus, Huh-7, 72 h, HCV genotype 1a replicon luciferase, 3 days incubation, read-out: LE_1a (EC50, range). A digest of the protocol:
(§1)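 Replicon inhibition for both genotypes was measured as Renilla luciferase signal (EnduRen, 7.5 μM final, 2 h) after 3-day, 37° C exposure of replicon-bearing HUH-7 cells in 4% FCS DMEM, 0.5% DMSO. The 1b construct carries S1179I; the 1a H77 construct carries P1496L and S2204I. Twenty-point, 3-fold dilutions were fitted four-parametrically for EC50, and CC50 was taken from multiplexed Cell Titer-Blue.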
For orientation: In antiviral work, replicon cells carry a viral genome segment that copies itself.

Assay [2] deals with HCV genotype 1b (Con1) replicon in HUH-7 cells. Kind of assay: HCV replicon luciferase reporter assay, genotype 1b. It is filed as cell-based. The note with it: Hepatitis C virus, Huh-7, 72 h, HCV genotype 1b replicon luciferase, 3 days incubation, read-out: LE_1b (EC50, range). A digest of the protocol: as §1

The structures appear in SMILES notation. pEC50: −log10 of the molar value. Like-named read-outs stand apart in the source and are kept apart here.

As for `COc1ccc2c(O[C@@H]3C[C@H]4C(=O)N[C@]5(C(=O)NS(=O)(=O)C6(C)CC6)C[C@H]5/C=C\CC[C@@H](C)C[C@@H](C)[C@H](NC(=O)OC(C)(C)C)C(=O)N4C3)ncc(-c3ccc(OC)nc3)c2c1` [Compound 4087, tert-butyl (2R,6S,7R,9R,13aS,14aR,16aS,Z)-2-(6-methoxy-4-(6-methoxypyridin-3-yl)isoquinolin-1-yloxy)-7,9-dimethyl-14a-(1-methylcyclopropylsulfonylcarbamoyl)-5,16-dioxo-1,2,3,5,6,7,8,9,10,11,13a,14,14a,15,16,16a-hexadecahydrocyclopropa[e]pyrrolo[1,2-a][1,4]diazacyclopentadecin-6-ylcarbamate], the negative-log EC50 (pEC50) in assay [1] and in assay [2] was above 8.26 each time.
As for `COc1ccc2ncc(O[C@@H]3C[C@H]4C(=O)N[C@]5(C(=O)NS(=O)(=O)C6(CF)CC6)C[C@H]5/C=C\CC[C@@H](C)C[C@@H](C)[C@H](NC(=O)OC(C)(C)C(F)(F)F)C(=O)N4C3)nc2c1` [Compound 4088], the pEC50 in assay [1] (GETYPE1A) and in assay [2] (GETYPE1B) was above 8.26 in each case.
With `COc1ccc2ncc(O[C@@H]3C[C@H]4C(=O)N[C@]5(C(=O)NS(=O)(=O)C6(CF)CC6)C[C@H]5/C=C\CC[C@@H](C)C[C@@H](C)[C@H](NC(=O)OC(C)(C)C)C(=O)N4C3)nc2c1` [Compound 4089, tert-butyl (2R,6S,7R,9R,13aS,14aR,16aS,Z)-14a-(1-(fluoromethyl)cyclopropylsulfonylcarbamoyl)-2-(7-methoxyquinoxalin-2-yloxy)-7,9-dimethyl-5,16-dioxo-1,2,3,5,6,7,8,9,10,11,13a,14,14a,15,16,16a-hexadecahydrocyclopropa[e]pyrrolo[1,2-a][1,4]diazacyclopentadecin-6-ylcarbamate], the negative-log EC50 (pEC50) in assay [1] was 6.99 to 8.32; in assay [2], above 8.26.
The matching figures for `COc1cc2ccnc(O[C@@H]3C[C@H]4C(=O)N[C@]5(C(=O)NS(=O)(=O)C6(CF)CC6)C[C@H]5/C=C\CC[C@@H](C)C[C@@H](C)[C@H](NC(=O)C5(C(F)(F)F)CC5)C(=O)N4C3)c2cc1F` [Compound 4090, (2R,6S,7R,9R,13aS,14aR,16aS,Z)-2-(7-fluoro-6-methoxyisoquinolin-1-yloxy)-N-(1-(fluoromethyl)cyclopropylsulfonyl)-7,9-dimethyl-5,16-dioxo-6-(1-(trifluoromethyl)cyclopropanecarboxamido)-1,2,3,5,6,7,8,9,10,11,13a,14,14a,15,16,16a-hexadecahydrocyclopropa[e]pyrrolo[1,2-a][1,4]diazacyclopentadecine-14a-carboxamide]: above 8.26 and above 8.26.
As to `COc1cc2ccnc(O[C@@H]3C[C@H]4C(=O)N[C@]5(C(=O)NS(=O)(=O)C6(CF)CC6)C[C@H]5/C=C\CC[C@@H](C)C[C@@H](C)[C@H](NC(=O)C(C)(C)C(F)(F)F)C(=O)N4C3)c2cc1F` [Compound 4091, (2R,6S,7R,9R,13aS,14aR,16aS,Z)-2-(7-fluoro-6-methoxyisoquinolin-1-yloxy)-N-(1-(fluoromethyl)cyclopropylsulfonyl)-7,9-dimethyl-5,16-dioxo-6-(3,3,3-trifluoro-2,2-dimethylpropanamido)-1,2,3,5,6,7,8,9,10,11,13a,14,14a,15,16,16a-hexadecahydrocyclopropa[e]pyrrolo[1,2-a][1,4]diazacyclopentadecine-14a-carboxamide], the pEC50 in assay [1] and in assay [2] was above 8.26 each time.
Turning to `COc1cc2ccnc(O[C@@H]3C[C@H]4C(=O)N[C@]5(C(=O)NS(=O)(=O)C6(C(F)F)CC6)C[C@H]5/C=C\CC[C@@H](C)C[C@@H](C)[C@H](NC(=O)OC(C)(C)C(F)(F)F)C(=O)N4C3)c2cc1F` [Compound 4093], the negative-log EC50 (pEC50) in assay [1] (GETYPE1A) and in assay [2] (GETYPE1B) was above 8.26 each time.
Take `COc1cc2c(OC)cnc(O[C@@H]3C[C@H]4C(=O)N[C@]5(C(=O)NS(=O)(=O)C6(C(F)F)CC6)C[C@H]5/C=C\CC[C@@H](C)C[C@@H](C)[C@H](NC(=O)OC(C)(C)C(F)(F)F)C(=O)N4C3)c2cc1F` [Compound 4095]: the negative-log EC50 (pEC50) in assay [1] (GETYPE1A) and in assay [2] (GETYPE1B) was above 8.26 throughout.
Turning to `COc1cc2ccnc(O[C@@H]3C[C@H]4C(=O)N[C@]5(C(=O)NS(=O)(=O)C6(CF)CC6)C[C@H]5/C=C\CC[C@@H](C)C[C@@H](C)[C@H](NC(=O)c5ccccc5C(F)(F)F)C(=O)N4C3)c2cc1F` [Compound 4096, (2R,6S,7R,9R,13aS,14aR,16aS,Z)-2-(7-fluoro-6-methoxyisoquinolin-1-yloxy)-N-(1-(fluoromethyl)cyclopropylsulfonyl)-7,9-dimethyl-5,16-dioxo-6-(2-(trifluoromethyl)benzamido)-1,2,3,5,6,7,8,9,10,11,13a,14,14a,15,16,16a-hexadecahydrocyclopropa[e]pyrrolo[1,2-a][1,4]diazacyclopentadecine-14a-carboxamide], the pEC50 in assay [1] and in assay [2] was above 8.26 throughout.
As to `COc1cc2ccnc(O[C@@H]3C[C@H]4C(=O)N[C@]5(C(=O)NS(=O)(=O)C6(CF)CC6)C[C@H]5/C=C\CC[C@@H](C)C[C@@H](C)[C@H](NC(=O)c5ccc(F)cc5F)C(=O)N4C3)c2cc1F` [Compound 4097, (2R,6S,7R,9R,13aS,14aR,16aS,Z)-6-(2,4-difluorobenzamido)-2-(7-fluoro-6-methoxyisoquinolin-1-yloxy)-N-(1-(fluoromethyl)cyclopropylsulfonyl)-7,9-dimethyl-5,16-dioxo-1,2,3,5,6,7,8,9,10,11,13a,14,14a,15,16,16a-hexadecahydrocyclopropa[e]pyrrolo[1,2-a][1,4]diazacyclopentadecine-14a-carboxamide], the pEC50 in assay [1] and in assay [2] was above 8.26 throughout.
Regarding `C[C@@H]1CC/C=C\[C@@H]2C[C@@]2(C(=O)NS(=O)(=O)C2(C)CC2)NC(=O)[C@@H]2C[C@@H](Oc3cnc4cc(F)ccc4n3)CN2C(=O)[C@@H](NC(=O)OC(C)(C)C(F)(F)F)[C@H](C)C1` [Compound 4099], the pEC50 in assay [1] (GETYPE1A) and in assay [2] (GETYPE1B) was above 8.26 each time.
Turning to `CC[C@@H]1C[C@H](C)CC/C=C\[C@@H]2C[C@@]2(C(=O)NS(=O)(=O)C2(C)CC2)NC(=O)[C@@H]2C[C@@H](Oc3cnc4ccc(OC)cc4c3)CN2C(=O)[C@H]1NC(=O)OC(C)(C)C(F)(F)F` [Compound 4100], the pEC50 in assay [1] (GETYPE1A) and in assay [2] (GETYPE1B) was above 8.26 each time.
Regarding `COc1cc2c(N3CCOCC3)cnc(O[C@@H]3C[C@H]4C(=O)N[C@]5(C(=O)NS(=O)(=O)C6(C)CC6)C[C@H]5/C=C\CC[C@@H](C)C[C@@H](C)[C@H](NC(=O)OC(C)(C)C(F)(F)F)C(=O)N4C3)c2cc1F` [Compound 4101], the pEC50 in assay [1] (GETYPE1A) and in assay [2] (GETYPE1B) was above 8.26 in each case.
`C[C@@H]1CC/C=C\[C@@H]2C[C@@]2(C(=O)NS(=O)(=O)C2(C)CC2)NC(=O)[C@@H]2C[C@@H](Oc3ncc(O)c4ccccc34)CN2C(=O)[C@@H](NC(=O)OC(C)(C)C(F)(F)F)[C@H](C)C1` [Compound 4103]: the negative logarithm of the EC50 (pEC50) in assay [1] (GETYPE1A) and in assay [2] (GETYPE1B) was 6.99 to 8.32 each time.
As to `CCOc1cnc(O[C@@H]2C[C@H]3C(=O)N[C@]4(C(=O)NS(=O)(=O)C5(CF)CC5)C[C@H]4/C=C\CC[C@@H](C)C[C@@H](C)[C@H](NC(=O)OC(C)(C)C(F)(F)F)C(=O)N3C2)c2ccc(OC)cc12` [Compound 4104], the negative-log EC50 (pEC50) in assay [1] (GETYPE1A) and in assay [2] (GETYPE1B) was above 8.26 each time.
As for `CCOc1cnc(O[C@@H]2C[C@H]3C(=O)N[C@]4(C(=O)NS(=O)(=O)C5(CF)CC5)C[C@H]4/C=C\CC[C@@H](C)C[C@@H](C)[C@H](NC(=O)OC(C)(C)C)C(=O)N3C2)c2ccc(OC)cc12` [Compound 4105, tert-butyl (2R,6S,7R,9R,13aS,14aR,16aS,Z)-2-(4-ethoxy-6-methoxyisoquinolin-1-yloxy)-14a-(1-(fluoromethyl)cyclopropylsulfonylcarbamoyl)-7,9-dimethyl-5,16-dioxo-1,2,3,5,6,7,8,9,10,11,13a,14,14a,15,16,16a-hexadecahydrocyclopropa[e]pyrrolo[1,2-a][1,4]diazacyclopentadecin-6-ylcarbamate], the negative-log EC50 (pEC50) in assay [1] and in assay [2] was above 8.26 throughout.
Turning to `COc1ccc2c(O[C@@H]3C[C@H]4C(=O)N[C@]5(C(=O)NS(=O)(=O)C6(C)CC6)C[C@H]5/C=C\CC[C@@H](C)C[C@@H](C)[C@H](NC(=O)OC(C)(C)C(F)(F)F)C(=O)N4C3)ncc(OC(=O)OC(C)(C)C(F)(F)F)c2c1` [Compound 4106], the pEC50 in assay [1] (GETYPE1A) and in assay [2] (GETYPE1B) was 6.99 to 8.32 each time.
Consider `COc1ccc2nc(O[C@@H]3C[C@H]4C(=O)N[C@]5(C(=O)NS(=O)(=O)C6(CF)CC6)C[C@H]5/C=C\CC[C@@H](C)C[C@@H](C)[C@H](NC(=O)OC(C)(C)C(F)(F)F)C(=O)N4C3)c(C)nc2c1` [Compound 4107], for which the negative logarithm of the EC50 (pEC50) in assay [1] (GETYPE1A) and in assay [2] (GETYPE1B) was above 8.26 each time.
On to `COc1ccc2nc(C)c(O[C@@H]3C[C@H]4C(=O)N[C@]5(C(=O)NS(=O)(=O)C6(CF)CC6)C[C@H]5/C=C\CC[C@@H](C)C[C@@H](C)[C@H](NC(=O)OC(C)(C)C(F)(F)F)C(=O)N4C3)nc2c1` [Compound 4108], for which the negative-log EC50 (pEC50) in assay [1] (GETYPE1A) and in assay [2] (GETYPE1B) was above 8.26 each time.

The record behind these values is US9499550B2 (BRISTOL-MYERS SQUIBB COMPANY, priority 2012, dated 2016).
